These results are taken from PMC2970562, “High-Affinity Inhibitors of Human NAD^+-Dependent 15-Hydroxyprostaglandin Dehydrogenase: Mechanisms of Inhibition and Structure-Activity Relationships” (PLoS ONE, 2010).

For assay [1], the target named is recombinant human placental 15-PGDH. Conditions: cited from earlier work; for potency as inhibitor of 15-PGDH: in words ref 22.
Assay [2] has as its target T1, human 15-PGDH (Homo sapiens, UniProt P15428).
T1 construct: comprising residues 3–256 of the human HPGD gene (GenBank identifier: 1203982); His6 (GHHHHHH, behind the TEV site) (C, cleaved yes); made in house; host or cells: E. coli BL21(DE3)-R3
T1 sequence (P15428 3-256): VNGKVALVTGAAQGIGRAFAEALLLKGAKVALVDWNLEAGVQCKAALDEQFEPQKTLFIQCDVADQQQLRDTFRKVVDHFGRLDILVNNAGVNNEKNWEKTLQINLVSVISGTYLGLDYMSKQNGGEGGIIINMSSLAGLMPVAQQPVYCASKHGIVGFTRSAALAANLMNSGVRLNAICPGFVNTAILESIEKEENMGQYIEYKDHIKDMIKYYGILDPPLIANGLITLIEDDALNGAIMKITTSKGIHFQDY
Description: Substrate (PGE2) and cofactor (NAD+) titrations, mechanism of action, global fitting. Type of assay: biochemical. Particulars: for Competitive (CM), fit residual Chi^2 value / Mixed-mode (MM), fit residual Chi^2 value / Noncompetitive (NM), fit residual Chi^2 value / Uncompetitive (UM), fit residual Chi^2 value: global fitting; for Titration of NAD^+ K m / Titration of NAD^+ V max [µmol/(min×mg)] / Titration of NAD^+ k cat/K m[×10^6] / Titration of NAD^+ k cat[1/sec]: 30 µM PGE2. The protocol:
Kinetic studies were performed in 100 mM Tris buffer pH 8.0, containing 0.01% Tween-20 and 10 nM 15-PGDH enzyme. […] All inhibitor compounds were dissolved in 10% (v/v) DMSO at varying concentrations from which they were applied at 1∶5 ratio (resulting in a final concentration of 2% (v/v) DMSO in all assays). For each experiment an aliquot of purified enzyme was thawed freshly and pre-diluted to 10 µM in buffer I (5 mM Tris/HCl, pH 8.0, 150 mM NaCl, 0.01% Tween-20). All experiments were performed in white 384-well PCR microplates (Bio-Rad Laboratories, Inc.) in final assay volumes of 20 µL. Twelve-point compound titrations were set up from serially diluted stock solutions in 10% (v/v) DMSO. […] The initial rates recorded in compound titrations were plotted against -log[compound], and non-linear regression (Levenberg-Marquardt) fitting of the dose-response curve to the Hill equation [47] was performed to derive the IC50, using PRISM 5.0 (GraphPad Software, Inc.). For substrate/cofactor titrations, curves with initial rates plotted against the concentration of substrate or cofactor were fitted to the Michaelis-Menten equation, to derive maximal activities, V max, and Michaelis constants, K m. Fitting qualities were judged from the goodness of fit (R^2>0.98).

Assay [3] concerns the target T1, human 15-PGDH. Description: Differential scanning fluorimetry (DSF), thermal stabilization. Type of assay: binding.
The target of the next assay is T2, ALDH1A1 (Homo sapiens, UniProt P00352).
T2 sequence (P00352 1-501): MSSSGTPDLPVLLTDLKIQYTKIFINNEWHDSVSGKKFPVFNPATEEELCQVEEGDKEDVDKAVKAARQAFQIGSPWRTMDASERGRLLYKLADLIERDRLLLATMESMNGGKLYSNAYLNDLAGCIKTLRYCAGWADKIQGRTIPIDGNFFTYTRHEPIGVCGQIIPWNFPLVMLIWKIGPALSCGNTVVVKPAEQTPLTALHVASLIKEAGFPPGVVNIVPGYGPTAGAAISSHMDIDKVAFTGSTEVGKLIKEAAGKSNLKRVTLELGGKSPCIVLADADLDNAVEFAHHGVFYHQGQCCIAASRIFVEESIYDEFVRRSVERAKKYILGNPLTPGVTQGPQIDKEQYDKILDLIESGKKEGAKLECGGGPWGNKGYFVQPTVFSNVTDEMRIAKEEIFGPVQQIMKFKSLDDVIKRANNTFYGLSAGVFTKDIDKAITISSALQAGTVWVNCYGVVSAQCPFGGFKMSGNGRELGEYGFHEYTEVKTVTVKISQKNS
Description: Selectivity screen, aldehyde dehydrogenase 1 (PubChem Assay ID 1030). Type of assay: biochemical.

Description for ALDH1A1: The list also includes two SDR enzymes, hydroxyacyl dehydrogenase (HADH2, also known as type-10 hydroxysteroid dehydrogenase, HSD17β10; PubChem Assay ID 886) and type-4 hydroxysteroid dehydrogenase (HSD17β4; PubChem Assay ID 893), and a medium-chain dehydrogenase/reductase (MDR), aldehyde dehydrogenase 1 (ALDH1A1; PubChem Assay ID 1030), each of which was tested using a similar experimental protocol to that used for 15-PGDH.

Take `CCOC(=O)c1ccc(N=Nc2ccc(O)c(CC(=O)O)c2)cc1` [CAY10397]: the inhibition constant Ki in assay [1] (human 15-PGDH ref 24) is 110 nM.
With `CC1(COc2ccc(CC3SC(=O)NC3=O)cc2)CCCCC1` (stereo not drawn) [Ciglitazone], the IC50 in assay [1] (recombinant human placental 15-PGDH ref 22) was 2700 nM.
`N#Cc1ccccc1CSc1nc2cc(Br)c[nH]c-2n1` [Compound 61]: on human 15-PGDH [2] (NAD^+ titration), the “Sum-of-squares F-test p, UM vs. MM” value is “UM vs. MM: p = 0.1058”; the “Competitive (CM), fit residual Chi^2 value” is listed as 0.9507; the “Mixed-mode (MM), fit residual Chi^2 value” came out at 0.9841; the “Noncompetitive (NM), fit residual Chi^2 value” came out at 0.9834. Besides, the “Uncompetitive (UM), fit residual Chi^2 value” at human 15-PGDH [2] (NAD^+ titration) is 0.9837. For the same compound, at human 15-PGDH [2] (PGE2 titration), the “Sum-of-squares F-test p, CM vs. MM” value was “CM vs. MM:p = 0.0001”; the “Competitive (CM), fit residual Chi^2 value” amounted to 0.9845; the “Mixed-mode (MM), fit residual Chi^2 value” was determined as 0.9866; the “Noncompetitive (NM), fit residual Chi^2 value” is reported as 0.9800. The “Uncompetitive (UM), fit residual Chi^2 value” at human 15-PGDH [2] (PGE2 titration) is recorded as 0.9742. Besides, at human 15-PGDH [2] (PGE2 titration, in words), the “effect on the V max” value is reported as “almost no effect”. Besides, the “increase in the K m” value at human 15-PGDH [2] (PGE2 titration, inhibitor 50 nM) is 3 fold. Besides, the “Preferred mode of inhibition” value on human 15-PGDH [2] (PGE2 titration, rejection threshold p = 0.05) is on record as “MM (MM, mixed-mode inhibition)”. At human 15-PGDH [2] (in words), the “mode of inhibition with respect to the cofactor NAD+” value was “uncompetitive” and the “mode of inhibition with respect to the substrate PGE2” value is “competitive inhibition”. Moreover, on human 15-PGDH [2] (inhibitor 10.0 nM), the “Titration of PGE2 K m” value worked out at 7.5 ± 0.5 µM, the “Titration of PGE2 V max[µmol/(min×mg)]” value came out at 29.0 µmol/min/mg, the “Titration of PGE2 k cat/K m[×10^6]” value is 1.8 ×10^6 and the “Titration of NAD^+ K m” value worked out at 17.0 ± 0.8 µM. On human 15-PGDH [2] (inhibitor 10.0 nM), the “Titration of NAD^+ V max [µmol/(min×mg)]” value amounted to 21.1 µmol/min/mg, the “Titration of NAD^+ k cat/K m[×10^6]” value is on record as 0.6 ×10^6 and the “Titration of NAD^+ k cat[1/sec]” value worked out at 10.3 ± 0.1 s⁻¹. On human 15-PGDH [2] (inhibitor 50.0 nM), the “Titration of PGE2 K m” value was 13.5 ± 1.3 µM, the “Titration of PGE2 V max[µmol/(min×mg)]” value was found to be 25.6 µmol/min/mg, the “Titration of PGE2 k cat/K m[×10^6]” value was 0.9 ×10^6 and the “Titration of PGE2 k cat[1/sec]” value worked out at 12.4 ± 0.3 s⁻¹. Moreover, at human 15-PGDH [2] (inhibitor 50.0 nM), the “Titration of NAD^+ K m” value came out at 11.1 ± 1.2 µM, the “Titration of NAD^+ V max [µmol/(min×mg)]” value came to 10.2 µmol/min/mg, the “Titration of NAD^+ k cat/K m[×10^6]” value is on record as 0.4 ×10^6 and the “Titration of NAD^+ k cat[1/sec]” value was 5.0 ± 0.1 s⁻¹. Further, on human 15-PGDH [3], the “ΔTm in the presence of NAD+” value was 12.2±0.1 °C and the “ΔTm in the presence of NADH” value was 2.9±0.5 °C. Also, the “∆Tm [°C] NAD+” value at human 15-PGDH [3] (with 200 µM NAD+, 1 µM protein, compound 50 or 250 µM, N/A = no unfolding transition observed in DSF) is 12.2 °C. The “∆Tm [°C] NADH” value at human 15-PGDH [3] (with 200 µM NADH, 1 µM protein, compound 50 or 250 µM, N/A = no unfolding transition observed in DSF) was 2.9 °C. The “∆Tm [°C] apo” value on human 15-PGDH [3] (without cofactor, 1 µM protein, compound 50 or 250 µM, N/A = no unfolding transition observed in DSF) is -1.2 °C. Moreover, the “response against ALDH1A1” value at ALDH1A1 (in words) is “flat response”. In addition, the IC50 on ALDH1A1 (top concentration 57.5 µM, PubChem Assay ID 1030, read-out: IC50/nM ALDH1A1) is > 57500 nM.
In the case of `COc1ccc2c(c1)c(CC(=O)O)c(C)n2C(=O)c1ccc(Cl)cc1` [indomethacin], the “potency as inhibitor of 15-PGDH” value in assay [1] is reported as “micromolar potencies”.
In the case of `O=C(O)c1cccnc1Nc1cccc(C(F)(F)F)c1` [niflumic acid], the “potency as inhibitor of 15-PGDH” value in assay [1] is listed as “micromolar potencies”.
With `CC1=C(CC(=O)O)c2cc(F)ccc2/C1=C\c1ccc([S+](C)[O-])cc1` (stereo not drawn) [sulindac], the “potency as inhibitor of 15-PGDH” value in assay [1] was “micromolar potencies”.
